This is an account of results in EP0514133A1, “Benzodiazepine derivatives, compositions containing them and their use in therapy” (priority 1991, dated 1992).

Where two headings read alike, the source gives them in different places.

In one assay the target is T1, Gastrin Receptor (Cavia porcellus, UniProt H0VZC5).
T1 sequence (H0VZC5 1-426): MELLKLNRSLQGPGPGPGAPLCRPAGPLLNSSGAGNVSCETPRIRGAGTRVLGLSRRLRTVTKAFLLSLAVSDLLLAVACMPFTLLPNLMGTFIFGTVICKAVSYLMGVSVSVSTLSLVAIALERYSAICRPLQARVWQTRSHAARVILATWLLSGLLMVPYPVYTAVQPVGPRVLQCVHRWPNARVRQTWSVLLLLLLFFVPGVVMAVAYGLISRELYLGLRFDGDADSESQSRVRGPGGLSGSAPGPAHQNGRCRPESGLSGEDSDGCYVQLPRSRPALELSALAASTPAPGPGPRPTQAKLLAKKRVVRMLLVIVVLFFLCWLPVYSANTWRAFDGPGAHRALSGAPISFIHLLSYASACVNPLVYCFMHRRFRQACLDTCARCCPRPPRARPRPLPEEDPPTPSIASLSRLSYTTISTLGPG
Put plainly: Gastrin Receptor Binding in Guinea Pig Gastric Glands, 125I-gastrin. Details: from tissue; host or cells: isolated guinea pig gastric mucosal glands. The note with it: 0.1 nM 125I-gastrin, 25°C 30 minutes. The protocol:
Gastrin antagonist activity of compounds of Formula I was determined using the following assay.
Guinea pig gastric mucosal glands were prepared by the procedure of Chang et. al., Science, 230, 177-179 (1985) with slight modifications. […] The tissues were passed twice through a 5 ml syringe to liberate the gastric glands, and then filtered through Nitex (trademark) #202 gauge nylon mesh. The filtered glands were centrifuged at 272 g for 5 minutes and washed twice by resuspension in 25 ml buffer and centrifugation.
The washed guinea pig gastric glands prepared as above were resuspended in 25 ml of standard buffer. For binding studies, to 250 µl of gastric glands, 30 µl of buffer (for total binding) or gastrin (3 µM final concentration, for nonspecific binding) or test compound and 20 µl of ¹²⁵I-gastrin (NEN, 2200 Ci/mmole, 0.1 nM final concentration) were added. All assays were run in triplicate. […] The reaction mixtures, after incubation at 25°C for 30 minutes in a shaking water bath were rapidly filtered (Brandell 24 well cell harvester) over Whatman G/F B filters presoaked in assay buffer and immediately washed further with 3 x 4 ml of 100 mM ice cold NaCl. The radioactivity on the filters was measured using a LKB gamma counter.

Assay [1] has as its target T2, CCK receptor (brain, cortex) (Cavia porcellus, UniProt H0VZC5).
T2 construct: the cortex was removed and homogenized in 25 mL ice-cold 0.32 M sucrose; from tissue; host or cells: guinea pig brain cortex P2 membrane pellet
T2 sequence (H0VZC5 1-426): T1 sequence (H0VZC5 1-426)
Nature of the assay: biochemical. The class given is binding, guinea pig. The protocol:
CCK-8 sulphated was radiolabelled and the binding was performed according to the description for the pancreas method with minor modifications.
Male Hartley guinea pigs (300-500g) were sacrificed by decapitation and the cortex was removed and homogenized in 25 mL ice-cold 0.32 M sucrose. The homogenates were centrifuged at 1000 g for 10 minutes and the resulting supernatant was recentrifuged at 20,000 g for 20 minutes. The P₂ pellet was resuspended in binding assay buffer (20mM HEPES, 5 mM MgCl₂, 0.25 mg/ml bacitracin, 1 mM EGTA pH 6.5 at 25°C), using a Teflon (trademark) homogenizer (5 strokes at 500 rpm) to give a final concentration of 10 mg original wet weight/1.2 ml buffer. […] All assays were run in duplicate. The reaction mixtures were incubated at 25°C for 2 hours and then the reaction was terminated by rapid filtration (Brandell 24 well cell harvester) on Whatman GF/C filters with 3 x 5 ml washes of cold 100 mM NaCl. The radioactivity on the filters was counted with a LKB gamma counter.
(§1) Drug displacement studies were performed with at least 10 concentrations of compounds of Formula I and the IC₅₀ values were determined by regression analysis IC₅₀ refers to the concentration of the compound required to inhibit 50% of specific binding of ¹²⁵I-CCK-8.

The next assay has as its target T3, CCK receptor (pancreas) (Rattus norvegicus, UniProt P30551).
T3 construct: The whole pancreas was dissected free of fat tissue and was homogenized; from tissue; host or cells: rat pancreas membrane homogenate
T3 sequence (P30551 1-444): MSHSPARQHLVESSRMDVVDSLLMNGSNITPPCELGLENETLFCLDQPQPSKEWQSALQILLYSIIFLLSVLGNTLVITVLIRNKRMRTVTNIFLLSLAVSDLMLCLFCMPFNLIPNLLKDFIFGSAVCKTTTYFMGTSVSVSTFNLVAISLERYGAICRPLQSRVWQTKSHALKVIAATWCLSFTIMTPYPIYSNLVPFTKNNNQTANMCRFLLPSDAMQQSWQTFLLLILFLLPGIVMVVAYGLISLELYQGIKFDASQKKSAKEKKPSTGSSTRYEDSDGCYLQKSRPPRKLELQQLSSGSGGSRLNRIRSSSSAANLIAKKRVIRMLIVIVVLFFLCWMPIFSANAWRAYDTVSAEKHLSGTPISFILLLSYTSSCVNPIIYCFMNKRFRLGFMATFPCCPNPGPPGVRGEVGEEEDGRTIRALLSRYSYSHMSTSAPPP
Nature of the assay: biochemical. The assay is classed as binding. The note with it: rat pancreas membranes; for IC50: 50 pM 125I-CCK-8, 25°C 2 hours. The protocol:
CCK-8 sulphated was radiolabelled with ¹²⁵I-Bolton Hunter reagent (2000 Ci/mmole). Receptor binding was performed according to Chang and Lotti (Proc. Natl. Acad. Sci. 83, 4923-4926, 1986) with minor modifications.
Male Sprague-Dawley rats (150-200g) were sacrificed by decapitation. The whole pancreas was dissected free of fat tissue and was homogenized in 25 volumes of ice-cold 10 mM N-2-hydroxyethyl-piperazine-N′-2-ethane sulphonic acid (HEPES) buffer with 0.1% soya bean trypsin inhibitor (pH 7.4 at 25°C) with a Kinematica Polytron. The homogenates were centrifuged at 47,800 g for 10 min. Pellets were resuspended in 10 volumes of binding assay buffer (20mM (HEPES)), 1mM ethylene glycol-bis-(β-aminoethylether-N,N′-tetraacetic acid) (EGTA), 5mM MgCl₂, 150 mM NaCl, bacitracin 0.25 mg/ml, soya bean trypsin inhibitor 0.1 mg/ml, and bovine serum albumin 2 mg/ml pH 6.5 at 25°C) using a Teflon (trademark) homogenizer, 15 strokes at 500 rpm. The homogenate was further diluted in binding assay buffer to give a final concentration of 0.5 mg original wet weight/1 ml buffer. […] All assays were run in duplicate. The reaction mixtures were incubated at 25°C for 2 hours and the reaction terminated by rapid filtration (Brandell 24 well cell harvester) over Whatman GF/C filters, washing 3 x 4 mls with ice-cold 100 Mm NaCl. The radioactivity on the filters was counted with a LKB gamma counter.
as §1

The mark [2] stands for this setting: guinea pig cortex membranes, 50 pM 125I-CCK-8, 25°C 2 hours, read-out: IC50 ^125I-CCK Brain.

One may read the IC50 as the point on the concentration scale where inhibition reaches its midpoint. For orientation: inhibition means the change of the read-out against control, counted positive when it falls.

In the case of `Cc1cccc(NC(=O)NC2N=C(C3CCCCC3)c3ccccc3N(C)C2=O)c1` (racemic) [Example 1, N-[3(R,S)-5-Cyclohexyl-2,3-dihydro-1-methyl-2-oxo-1H-1,4-benzodiazepin-3-yl] N′-[3-methylphenyl] urea], the IC50 on Gastrin Receptor was determined as 0.83 nM; in assay [1] (setting [2]) it was 2.2 nM.
For the compound `CN1C(=O)C(NC(=O)Nc2cccc(-c3nn[nH]n3)c2)N=C(C2CCCCC2)c2ccccc21` (racemic) [Example 4, N-[3(R,S)-5-Cyclohexyl-2,3-dihydro-1-methyl-2-oxo-1H-1,4-benzodiazepin-3-yl] N′-[3-tetrazol-5-ylphenyl]urea], the IC50 on Gastrin Receptor is 0.44 nM; against CCK receptor (pancreas), 11 nM; in assay [1] (setting [2]), 0.09 nM.
For the compound `CC(=O)NS(=O)(=O)c1cccc(NC(=O)NC2N=C(C3CCCCC3)c3ccccc3N(C)C2=O)c1` (racemic) [Example 15, N-[3(R,S)-5-Cyclohexyl-2,3-dihydro-1-methyl-2-oxo-1H-1,4-benzodiazepin-3-yl] N′-[3-(methylcarbonylaminosulphonyl)phenyl] urea], the IC50 on Gastrin Receptor was determined as 1.06 nM; at CCK receptor (pancreas), 19.8 nM; in assay [1], 0.4 nM.
With `CN1C(=O)C(NC(=O)Nc2cccc(S(=O)(=O)NC(=O)C(F)(F)F)c2)N=C(C2CCCCC2)c2ccccc21` (racemic) [Example 17, N-[3(R,S)-5-Cyclohexyl-2,3-dihydro-1-methyl-2-oxo-1H-1,4-benzodiazepin-3-yl] N′-[3-(trifluoromethylcarbonylaminosulphonyl)phenyl] urea], the IC50 came out at 10.5 nM at Gastrin Receptor, 137 nM against CCK receptor (pancreas) and 0.9 nM in assay [1] (setting [2]).
In the case of `CCN1C(=O)C(NC(=O)Nc2cccc(S(=O)(=O)NC(C)=O)c2)N=C(C2CCCC2)c2ccccc21` (racemic) [Example 20, N-[3(R,S)-5-Cyclopentyl-2,3-dihydro-1-ethyl-2-oxo-1H-1,4-benzodiazepin-3-yl] N′-[3-(methylcarbonylaminosulphonyl)phenyl] urea], the results for the IC50 (at Gastrin Receptor; against CCK receptor (pancreas); in assay [1] (setting [2])) were 1.77 nM, 953 nM and 1.4 nM, respectively.
With `Cc1cccc(NC(=O)NC2N=C(C3CCCCC3)c3ccccc3N(C)C2=O)c1` (single isomer, unassigned) [7 (Peak A)], the IC50 at Gastrin Receptor worked out at 0.92 nM; in assay [1] (setting [2]) it was 0.47 nM.
Consider `CC(C)S(=O)(=O)NC(=O)c1cccc(NC(=O)NC2N=C(C3CCCCC3)c3ccccc3N(C)C2=O)c1` (single isomer, unassigned) [24 (Peak A)], for which the IC50 stood at 0.7 nM at Gastrin Receptor and 1180 nM on CCK receptor (pancreas).
Regarding `CN1C(=O)[C@H](NC(=O)Nc2cccc(C(=O)NS(=O)(=O)c3ccccc3)c2)N=C(C2CCCCC2)c2ccccc21` [Example 27, (-)-N-[3(R)-5-Cyclohexyl-2,3-dihydro-1-methyl-2-oxo-1H-1,4-benzodiazepin-3-yl] N′-[3-(phenylsulphonylaminocarbonyl)phenyl]urea], the values for the IC50 (on Gastrin Receptor; in assay [1]) were 1.34 nM and 0.38 nM, respectively. For the same compound, the inhibition at 3 µM on CCK receptor (pancreas) (at 3μM, read-out: inhibition of ^125I-CCK binding, Pancreas) amounted to 19%.
Consider “N-(3(R,S)-5-Cyclopentyl-2,3-dihydro-1-methyl-2-oxo-1H-1,4-benzodiazepin-3-yl] N′-[3-(1,1-dimethylethylsulphonylaminocarbonyl)phenyl] urea [Example 39]”, for which the IC50 on Gastrin Receptor was 1.18 nM; on CCK receptor (pancreas), 270 nM; in assay [1] (setting [2]) it was 0.56 nM.
